Experimental data published in patent US20240109885A1, “2,3-DIHYDRO-1H-PYRROLO[3,2-B]PYRIDINE DERIVATIVE, PREPARATION METHOD THEREFOR, AND APPLICATION THEREOF” (Abbisko Therapeutics Co., Ltd, priority 2020, published 2024).

Experiments:
Type in all cases: cell-based
[1] = biological target: Ba/F3 EGFR-V769_D770insASV (Homo sapiens, UniProt P00533, DUP767-769, cells depend on it); assay: Cell proliferation assay (CellTiter-Glo), Ba/F3 EGFR-V769_D770insASV cells; conditions: 72 hrs, CTG assay, * = average of multiple measurements, read-out: Ba/F3 EGFR-V769_D770insASV (nM), IC50 of cell proliferation
Summary of the method: (§1)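 Cells seeded overnight, then treated in triplicate with 9 concentrations (3.16-fold dilutions; 0.1% DMSO final) for 72 h at 37 °C, 5% CO2. Viability by CellTiter-Glo luminescence, normalised to cell and medium controls; IC50 (nM) from nonlinear sigmoidal fit.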

[2] = system: A431 (EGFR-WT); assay: Cell proliferation assay (CellTiter-Glo), A431 cells; conditions: Homo sapiens, A-431, 72 hrs, CTG assay, * = average of multiple measurements
Procedure: I. Cell proliferation assay (i) Reagents and consumables • Fetal bovine serum (FBS) (GBICO, Cat #10099-141); • CellTiter-Glo® Luminescent Cell Viability Assay Kit (Promega, Cat #G7572); • Black transparent flat-bottomed 96-well plate (Corning®, Cat #3603).
• SpectraMax Multi-Label Microplate Detector MD, 2104-0010A; • CO2 incubator, Thermo Scientific 3100 Series; • Biosafety cabinet, Thermo Scientific, 1300 Series type A2; • Inverted microscope, Olympus, CKX41SF; • Siemens refrigerator KK25E76TI. (iii) Cell lines and culture conditions
(iv) Experimental procedures 1. Cell culture and seeding: • (1) Cells in the logarithmic growth phase were harvested, and counted using a platelet counter. Cell viability was detected by the trypan blue exclusion assay to ensure that the cell viability was above 90%. • (2) The cell concentration was adjusted to achieve the final density; and 90 μL of the cell suspension was added to the 96-well plate. • (3) The cells were incubated in the 96-well plate overnight at 37° C. in the presence of 5% CO2 with 95% humidity. 2. TO benchmark data: • (1) 10 μL of PBS was added to each well of the TO flat plate containing the cells. • (2) The CTG reagent was thawed, and the cell plate was equilibrated to room temperature for 30 min. • (3) An equal volume of CTG solution was added to each well. • (4) The cells were shaken for 5 min on an orbital shaker for lysis. • (5) The cell plate was left at room temperature for 20 min to stabilize luminescent signals. • (6) The values of TO luminescent signals were read. 3. Compound dilution and addition • (1) According to the compound information table, a corresponding volume of DMSO was added to the corresponding compound powder to prepare a 10 mM stock solution. • (2) Compound solutions diluted at 1000 fold and 3.16 fold were prepared. • (3) The compound solution diluted at 1000 fold was diluted at 100 fold with PBS, to prepare the compound solutions at 10 fold in 9 concentrations, with the maximum concentration of […]; and the compound solution was diluted at 3.16 fold. 10 μL of medicament solution was added to each well of the seeded 96-well plate. Three replicate wells were provided for each concentration of the compound, and the final concentration of DMSO was 0.1%. • (4) Cells were placed in the 96-well plate containing the medicament and subsequently cultured for 72 hrs at 37° C. in the presence of 5% CO2 with 95% humidity, and then, CTG assay was conducted. 4. Reading of luminescent signals • (1) The CTG reagent was thawed, and the cell plate was equilibrated to room temperature for 30 min. • (2) An equal volume of CTG solution was added to each well. • (3) The cells were shaken for 5 min on an orbital shaker for lysis.
(4) The cell plate was left at room temperature for 20 min to stabilize the luminescent signals. • (5) Luminescent values were read. Data processing
The data were analyzed using software GraphPad Prism 7.0, and fitted by the nonlinear S-curve regression to obtain a dose-effect curve, based on which the IC50 value (unit: nM) was calculated, with the specific test results shown in Table 1.
Cell viability (%)=(Lum test medicament-Lum culture medium control)/(Lum cell control-Lum culture medium control)×100%.

[3] = biological target: Ba/F3 EGFR-D770-N771ins_SVD (Homo sapiens, UniProt P00533, DUP768-770, cells depend on it); assay: Cell proliferation assay (CellTiter-Glo), Ba/F3 EGFR-D770-N771ins_SVD cells; conditions: 72 hrs, CTG assay, * = average of multiple measurements, read-out: Ba/F3 EGFR-D770-N771ins_SVD (nM), IC50 of cell proliferation
Summary of the method: as §1

Sequence of Ba/F3 EGFR-D770-N771ins_SVD (P00533 with tags, fused parts or gaps DUP768-770): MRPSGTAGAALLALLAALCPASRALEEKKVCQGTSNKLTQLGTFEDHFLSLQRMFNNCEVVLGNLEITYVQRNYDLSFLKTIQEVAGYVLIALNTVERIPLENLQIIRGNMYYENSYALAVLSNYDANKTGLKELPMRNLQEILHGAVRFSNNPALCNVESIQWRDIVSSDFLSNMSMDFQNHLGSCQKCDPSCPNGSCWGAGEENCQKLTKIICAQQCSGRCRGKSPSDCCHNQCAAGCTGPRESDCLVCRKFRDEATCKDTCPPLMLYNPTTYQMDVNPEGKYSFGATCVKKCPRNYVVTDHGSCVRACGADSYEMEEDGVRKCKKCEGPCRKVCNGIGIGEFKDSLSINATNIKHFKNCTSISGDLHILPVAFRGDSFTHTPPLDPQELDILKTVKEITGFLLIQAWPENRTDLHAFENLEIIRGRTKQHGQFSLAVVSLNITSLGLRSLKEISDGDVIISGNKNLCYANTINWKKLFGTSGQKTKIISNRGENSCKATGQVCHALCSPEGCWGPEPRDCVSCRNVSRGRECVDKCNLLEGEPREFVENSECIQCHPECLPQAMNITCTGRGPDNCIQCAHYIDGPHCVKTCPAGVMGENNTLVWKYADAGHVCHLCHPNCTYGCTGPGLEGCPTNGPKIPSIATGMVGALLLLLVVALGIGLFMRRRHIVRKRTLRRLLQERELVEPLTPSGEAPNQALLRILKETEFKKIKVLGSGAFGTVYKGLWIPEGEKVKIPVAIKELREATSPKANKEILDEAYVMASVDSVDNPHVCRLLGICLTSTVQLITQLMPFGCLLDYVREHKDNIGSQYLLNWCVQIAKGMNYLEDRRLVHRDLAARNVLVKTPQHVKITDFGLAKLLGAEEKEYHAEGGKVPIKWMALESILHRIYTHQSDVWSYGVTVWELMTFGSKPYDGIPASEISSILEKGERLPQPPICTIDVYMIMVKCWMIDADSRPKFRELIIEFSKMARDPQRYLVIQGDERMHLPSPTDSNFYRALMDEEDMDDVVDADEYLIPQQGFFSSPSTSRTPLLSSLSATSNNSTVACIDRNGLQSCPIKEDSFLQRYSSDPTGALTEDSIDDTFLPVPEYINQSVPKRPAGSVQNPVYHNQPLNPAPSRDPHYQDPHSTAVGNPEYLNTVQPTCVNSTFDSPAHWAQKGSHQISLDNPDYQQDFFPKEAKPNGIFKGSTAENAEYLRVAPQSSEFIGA
Sequence of Ba/F3 EGFR-V769_D770insASV (P00533 with tags, fused parts or gaps DUP767-769): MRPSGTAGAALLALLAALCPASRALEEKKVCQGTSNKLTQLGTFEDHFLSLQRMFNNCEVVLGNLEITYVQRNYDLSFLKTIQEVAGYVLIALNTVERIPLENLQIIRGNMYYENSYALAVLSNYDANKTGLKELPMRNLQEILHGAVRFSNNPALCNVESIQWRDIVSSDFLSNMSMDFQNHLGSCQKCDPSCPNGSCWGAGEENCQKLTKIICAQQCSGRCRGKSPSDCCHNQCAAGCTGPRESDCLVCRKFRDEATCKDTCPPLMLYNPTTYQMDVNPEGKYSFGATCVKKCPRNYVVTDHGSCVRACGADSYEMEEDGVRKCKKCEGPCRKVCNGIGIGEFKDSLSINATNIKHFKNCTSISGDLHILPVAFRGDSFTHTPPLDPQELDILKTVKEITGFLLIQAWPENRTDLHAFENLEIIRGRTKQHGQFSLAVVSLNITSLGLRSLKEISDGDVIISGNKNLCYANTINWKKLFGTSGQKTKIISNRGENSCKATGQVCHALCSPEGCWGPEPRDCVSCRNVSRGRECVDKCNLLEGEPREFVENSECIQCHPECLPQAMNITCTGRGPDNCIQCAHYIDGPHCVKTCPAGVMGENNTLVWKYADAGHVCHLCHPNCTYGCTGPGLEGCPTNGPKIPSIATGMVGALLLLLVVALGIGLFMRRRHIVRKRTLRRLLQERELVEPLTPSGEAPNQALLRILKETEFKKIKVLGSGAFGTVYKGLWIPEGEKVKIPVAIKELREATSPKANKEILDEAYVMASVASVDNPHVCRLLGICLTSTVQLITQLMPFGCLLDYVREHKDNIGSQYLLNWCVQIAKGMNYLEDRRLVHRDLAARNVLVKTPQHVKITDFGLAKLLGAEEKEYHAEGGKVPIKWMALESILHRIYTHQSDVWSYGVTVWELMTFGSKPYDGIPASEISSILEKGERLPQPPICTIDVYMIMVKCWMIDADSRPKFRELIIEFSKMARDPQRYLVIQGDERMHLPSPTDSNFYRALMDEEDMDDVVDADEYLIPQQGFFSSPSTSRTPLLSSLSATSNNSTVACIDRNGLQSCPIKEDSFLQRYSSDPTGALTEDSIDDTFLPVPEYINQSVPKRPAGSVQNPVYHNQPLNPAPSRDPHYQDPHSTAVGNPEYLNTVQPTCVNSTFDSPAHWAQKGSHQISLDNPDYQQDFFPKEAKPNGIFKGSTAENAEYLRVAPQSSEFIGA

In the case of `C=CC(=O)Nc1cc(Nc2nccc(N3CC4(CCC4)c4nc(C)ccc43)n2)c(OC(F)F)cc1N(C)CCN(C)C` [Example 64, N-(4-(difluoromethoxy)-2-((2-(dimethylamino)ethyl)(methyl)amino)-5-((4-(5′-methylspiro[cyclo-butane-1,3′-pyrrolo[3,2-b]pyridin]-1′(2′H)-yl)pyrimidin-2-yl)amino)phenyl)acrylamide], the GI50 [1] is reported as 31.9 nM, the IC50 [2] is reported as 494 nM and the GI50 [3] is reported as 17.1 nM.

Work on `C=CC(=O)Nc1cc(Nc2cc(N3CC(C)(C)c4ncccc43)ncn2)c(OC)cc1N1CCC[C@@H]1CN(C)C` [Example 12, (R)-N-(5-((6-(3,3-dimethyl-2,3-dihydro-1H-pyrrolo[3,2-b]pyridin-1-yl)pyrimidin-4-yl)amino)-2-(2-((dimethylamino)methyl)pyrrolidin-1-yl)-4-methoxyphenyl)acrylamide] yielded a GI50 [1] of 70.8 nM, an IC50 [2] of 89.9 nM and a GI50 [3] of 35.3 nM.

Work on `C=CC(=O)Nc1cc(Nc2ncnc(N3CC(C)(C)c4nc(C)c(C)cc43)n2)c(OC(C)C)cc1N(C)CCN(C)C` [Example 44, N-(2-((2-(dimethylamino)ethyl) (methyl)amino)-4-isopropoxy-5-((4-(3,3,5,6-tetramethyl-2,3-dihydro-1H-pyrrolo[3,2-b]pyridin-1-yl)-1,3,5-triazin-2-yl)amino)phenyl)acrylamide] yielded a GI50 [1] of 35 nM, an IC50 [2] of 108 nM and a GI50 [3] of 20.1 nM.

`C=CC(=O)Nc1cc(Nc2ncnc(N3CC4(CCC4)c4nc(C)ccc43)n2)c(OC)cc1N(C)CCN(C)C` [Example 61, N-(2-((2-(dimethylamino)ethyl) (methyl)amino)-4-methoxy-5-((4-(5′-methylspiro[cyclobutane-1,3′-pyrrolo[3,2-b]pyridin]-1′(2′H)-yl)-1,3,5-triazin-2-yl)amino)phenyl) acrylamide] gave a GI50 [1] of 46.4 nM, an IC50 [2] of 18.7 nM and a GI50 [3] of 14.1 nM.

In the case of `C=CC(=O)Nc1cc(Nc2nccc(N3CC4(CCC4)c4ncccc43)n2)c(OC(F)F)cc1N(C)CCN(C)C` [Example 62, N-(4-(difluoromethoxy)-2-((2-(dimethylamino)ethyl)(methyl)amino)-5-((4-(spiro[cyclobutane-1,3′-pyrrolo[3,2-b]pyridin]-1′(2′H)-yl)pyrimidin-2-yl)amino)phenyl) acrylamide], the GI50 [1] is reported as 36.3 nM, the IC50 [2] is reported as 582 nM and the GI50 [3] is reported as 21.7 nM.

With `C=CC(=O)Nc1cc(Nc2ncnc(N3CC(C)(C)c4nc(C)ccc43)n2)c(OC(C)C)nc1N(C)CCN(C)C` [Example 48, N-(2-((2-(dimethylamino)ethyl) (methyl)amino)-6-isopropoxy-5-((4-(3,3,5-trimethyl-2,3-dihydro-1H-pyrrolo[3,2-b]pyridin-1-yl)-1,3,5-triazin-2-yl)amino)pyridin-3-yl) acrylamide] the GI50 [1] was 9.1 nM, the IC50 [2] was 66 nM and the GI50 [3] was 23.7 nM.

With `C=CC(=O)Nc1cc(Nc2nccc(N3CC(C)(C)c4nc(C5CC5)ccc43)n2)c(OC)nc1N(C)CCN(C)C` [Example 69, N-(5-((4-(5-cyclopropyl-3,3-dimethyl-2,3-dihydro-1H-pyrrolo [3,2-b]pyridin-1-yl)pyrimidin-2-yl)amino)-2-((2-(dimethylamino)ethyl) (methyl)amino)-6-methoxypyridin-3-yl)acrylamide] the GI50 [1] was 53.7 nM, the IC50 [2] was 317 nM and the GI50 [3] was 24.8 nM.

For `C=CC(=O)Nc1cc(Nc2ncnc(N3CC(C)(C)c4nc(C)c(C)cc43)n2)c(OC)cc1N(C)CCN(C)C` [Example 20, N-(2-((2-(dimethylamino)ethyl) (methyl)amino)-4-methoxy-5-((4-(3,3,5,6-tetramethyl-2,3-dihydro-1H-pyrrolo[3,2-b]pyridin-1-yl)-1,3,5-triazin-2-yl)amino)phenyl)acrylamide], the GI50 [1] was 14 nM, the IC50 [2] was 15.2 nM and the GI50 [3] was 2.9 nM.
